Data as given in article PMC8895403, “A Strategy to Select Macrocyclic Peptides Featuring Asymmetric Molecular Scaffolds as Cyclization Units by Phage Display” (Journal of the American Chemical Society, 2022).
Read-outs that look alike come from different tables or passages of the source. Ends that are not written are not given here.

Assays:
[1] = Head-to-side-chain cyclisation: Cys S-alkylation with bifunctional aldehyde linker 1-4 (benzyl bromide or bromoacetamide), then intramolecular reductive amination of the N-terminal amine with NaBH3CN (one pot, crude peptides); details: the molecule shown is the open-chain precursor, 100 mM MOPS pH 6.5 / about 20% MeCN, TCEP, 0.5 mM, 4.0 °C, 24.0 h, 2 steps, scale: 1 = smooth/efficient conversion to macrocycle as major UPLC-MS species, <1 = partial, mixture
streptavidin = streptavidin (Streptomyces avidinii, UniProt P22629); test: HABA competition binding assay (competitive ligand-binding analysis); details: >10 μM given where no saturation, read-out: Kd,app
Sequence of streptavidin (P22629 25-183): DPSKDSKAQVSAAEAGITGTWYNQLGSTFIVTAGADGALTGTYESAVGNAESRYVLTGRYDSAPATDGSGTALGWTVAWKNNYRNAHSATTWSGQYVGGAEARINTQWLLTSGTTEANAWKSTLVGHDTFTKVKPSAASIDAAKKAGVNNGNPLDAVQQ
Text: To pinpoint the binding mode of SAV_1–3 variants, we first synthesized the linear precursors and then prepared their modified and cyclized versions (Figure S13). […] To further elucidate the role of the free aldehyde for binding, we additionally prepared SAV_1–3 peptides that were modified with cyclization units bearing an alcohol moiety instead (Figures 6b and S13). […]
In vitro affinity measurements: To determine the affinity of the selected peptides for Streptavidin, a competitive binding experiment was performed similarly to previously described literature procedures.[7] In brief, for the competitive binding experiment, increasing amounts of peptide (final concentration 0.01 – 500 μM in 12.5% ACN + 0.1% TFA in PBS phosphate buffered saline (PBS, 137 mM NaCl, 2.7 mM KCl, 10 mM Na2HPO4, 2 mM […]
Streptavidin monomer (final concentration 1.5 mM/ 40 µM (SAV_1), 33 µM (SAV_2), 32 µM (SAV_3)). The reactions were allowed to reach equilibrium at room temperature (60 min.) and […]
IC50 values were obtained by fitting the average of three measurements to equation 1:
A = A + A500nm,max − A500nm,min (1) […]
where, A500nm is the measured absorbance at unbound peptide concentration, [L], and H is the Hill coefficient (H = 1 assumed for streptavidin-binding peptides). A500nm,min corresponds to the value measured in presence of 1 mM biotin and A500nm,max corresponds to absorbance values measured in absence of the peptide.
The Kd values for SAV_1_mod, SAV_1_cycl, and SAV_2_mod, SAV_1S_mod, and SAV_1S_cycl were obtained from their respective IC50 values using equation 2: […]

COc1ccc(C=O)cc1NC(=O)CSC[C@H](NC(=O)CNC(=O)[C@H](CO)NC(=O)CNC(=O)CNC(=O)[C@H](CO)NC(=O)[C@H](CO)NC(=O)[C@@H](NC(=O)[C@H](C)N)C(C)C)C(=O)N[C@@H](Cc1c[nH]c2ccccc12)C(=O)N[C@@H](C)C(N)=O
ring closure, product found ([1]; 35-membered ring): 1

CC(C)[C@H](NC(=O)[C@H](C)N)C(=O)N[C@@H](CO)C(=O)N[C@@H](CO)C(=O)NCC(=O)NCC(=O)N[C@@H](CO)C(=O)NCC(=O)N[C@@H](CSCC(=O)Nc1ccc(C=O)cc1)C(=O)N[C@@H](Cc1c[nH]c2ccccc12)C(=O)N[C@@H](C)C(N)=O
ring closure, product found ([1]; 36-membered ring): 1

CC(C)[C@H](NC(=O)[C@H](C)N)C(=O)N[C@@H](CO)C(=O)N[C@@H](CO)C(=O)NCC(=O)NCC(=O)N[C@@H](CSCC(=O)Nc1ccc2cc(C=O)ccc2c1)C(=O)N[C@@H](Cc1c[nH]c2ccccc12)C(=O)N[C@@H](C)C(N)=O
ring closure, product found ([1]; 32-membered ring): 1

COc1ccc(C=O)cc1NC(=O)CSC[C@H](NC(=O)CNC(=O)CNC(=O)[C@H](CO)NC(=O)[C@H](CO)NC(=O)[C@@H](NC(=O)[C@H](CCCCN)NC(C)=O)C(C)C)C(=O)N[C@@H](Cc1c[nH]c2ccccc12)C(=O)N[C@@H](C)C(N)=O
ring closure, product found ([1]; 33-membered ring): < 1

COc1ccc(C=O)cc1NC(=O)CSC[C@H](NC(=O)[C@H](Cc1ccc(O)cc1)NC(=O)[C@H](Cc1c[nH]cn1)NC(=O)[C@H](CCCCN)NC(=O)[C@H](CCC(=O)O)NC(=O)[C@H](CC(N)=O)NC(=O)[C@@H](NC(=O)[C@H](C)N)C(C)C)C(=O)N[C@@H](Cc1c[nH]c2ccccc12)C(=O)N[C@@H](C)C(N)=O
ring closure, product found ([1]; 32-membered ring): 1

CC(C)[C@H](NC(=O)[C@H](C)N)C(=O)N[C@@H](CC(N)=O)C(=O)N[C@@H](CCC(=O)O)C(=O)N[C@@H](CCCCN)C(=O)N[C@@H](Cc1c[nH]cn1)C(=O)N[C@@H](Cc1ccc(O)cc1)C(=O)N[C@@H](CSCC(=O)Nc1ccc2cc(C=O)ccc2c1)C(=O)N[C@@H](Cc1c[nH]c2ccccc12)C(=O)N[C@@H](C)C(N)=O
ring closure, product found ([1]; 35-membered ring): 1

CC(C)[C@H](NC(=O)[C@H](C)N)C(=O)N[C@@H](CO)C(=O)N[C@@H](CO)C(=O)NCC(=O)NCC(=O)N[C@@H](CSCc1ccc(C=O)cc1)C(=O)N[C@@H](Cc1c[nH]c2ccccc12)C(=O)N[C@@H](C)C(N)=O [H-Ala-Val-Ser-Ser-Gly-Gly-Cys(CH2-C6H4-4-CHO)-Trp-Ala-NH2]
ring closure, product found ([1]; 28-membered ring): 1

CC(C)[C@H](NC(=O)[C@@H](N)CCCCN)C(=O)N[C@@H](CO)C(=O)N[C@@H](CO)C(=O)NCC(=O)NCC(=O)N[C@@H](CSCc1ccc(C=O)cc1)C(=O)N[C@@H](Cc1c[nH]c2ccccc12)C(=O)N[C@@H](C)C(N)=O [H-Lys-Val-Ser-Ser-Gly-Gly-Cys(CH2-C6H4-4-CHO)-Trp-Ala-NH2]
ring closure, product found ([1]; 28-membered ring): 1

CC(=O)N[C@@H](CCCCN)C(=O)N[C@H](C(=O)N[C@@H](CO)C(=O)N[C@@H](CO)C(=O)NCC(=O)NCC(=O)N[C@@H](CSCc1ccc(C=O)cc1)C(=O)N[C@@H](Cc1c[nH]c2ccccc12)C(=O)N[C@@H](C)C(N)=O)C(C)C [Ac-Lys-Val-Ser-Ser-Gly-Gly-Cys(CH2-C6H4-4-CHO)-Trp-Ala-NH2]
ring closure, product found ([1]; 32-membered ring): < 1

COc1ccc(C=O)cc1NC(=O)CSC[C@H](NC(=O)CNC(=O)CNC(=O)[C@H](CO)NC(=O)[C@H](CO)NC(=O)[C@@H](NC(=O)[C@H](C)N)C(C)C)C(=O)N[C@@H](Cc1c[nH]c2ccccc12)C(=O)N[C@@H](C)C(N)=O
ring closure, product found ([1]; 29-membered ring): 1

CC(=O)N[C@@H](CCCCN)C(=O)N[C@H](C(=O)N[C@@H](CO)C(=O)N[C@@H](CO)C(=O)NCC(=O)NCC(=O)N[C@@H](CSCC(=O)Nc1ccc2cc(C=O)ccc2c1)C(=O)N[C@@H](Cc1c[nH]c2ccccc12)C(=O)N[C@@H](C)C(N)=O)C(C)C
ring closure, product found ([1]; 36-membered ring): < 1

AWWTNDFCA-NH2 [SAV_1S]
Kd (streptavidin; aldehyde-modified peptide (Figure 6b, column 3)): 5.16 ± 0.59 µM | Kd (streptavidin; cyclic peptide (Figure 6b, column 4)): 0.164 ± 0.078 µM | Kd (streptavidin; linear precursor peptide (Figure 6b, column 1)): > 10 µM

CC(C)[C@H](NC(=O)[C@H](C)N)C(=O)N[C@@H](CC(N)=O)C(=O)N[C@@H](CCC(=O)O)C(=O)N[C@@H](CCCCN)C(=O)N[C@@H](Cc1c[nH]cn1)C(=O)N[C@@H](Cc1ccc(O)cc1)C(=O)N[C@@H](CSCc1ccc(C=O)cc1)C(=O)N[C@@H](Cc1c[nH]c2ccccc12)C(=O)N[C@@H](C)C(N)=O
ring closure, product found ([1]; 31-membered ring): 1

CC(C)[C@H](NC(=O)[C@H](C)N)C(=O)N[C@@H](CO)C(=O)N[C@@H](CO)C(=O)NCC(=O)NCC(=O)N[C@@H](CO)C(=O)NCC(=O)N[C@@H](CSCc1ccc(C=O)cc1)C(=O)N[C@@H](Cc1c[nH]c2ccccc12)C(=O)N[C@@H](C)C(N)=O
ring closure, product found ([1]; 34-membered ring): 1

COc1ccc(C=O)cc1NC(=O)CSC[C@H](NC(=O)CNC(=O)CNC(=O)[C@H](CO)NC(=O)[C@H](CO)NC(=O)[C@@H](NC(=O)[C@@H](N)CCCCN)C(C)C)C(=O)N[C@@H](Cc1c[nH]c2ccccc12)C(=O)N[C@@H](C)C(N)=O
ring closure, product found ([1]; 29-membered ring): 1

CC(C)[C@H](NC(=O)[C@H](C)N)C(=O)N[C@@H](CO)C(=O)N[C@@H](CO)C(=O)NCC(=O)NCC(=O)N[C@@H](CSCC(=O)Nc1ccc(C=O)cc1)C(=O)N[C@@H](Cc1c[nH]c2ccccc12)C(=O)N[C@@H](C)C(N)=O
ring closure, product found ([1]; 30-membered ring): 1

CC(=O)N[C@@H](CCCCN)C(=O)N[C@H](C(=O)N[C@@H](CO)C(=O)N[C@@H](CO)C(=O)NCC(=O)NCC(=O)N[C@@H](CSCC(=O)Nc1ccc(C=O)cc1)C(=O)N[C@@H](Cc1c[nH]c2ccccc12)C(=O)N[C@@H](C)C(N)=O)C(C)C
ring closure, product found ([1]; 34-membered ring): < 1

CC(C)[C@H](NC(=O)[C@H](C)N)C(=O)N[C@@H](CC(N)=O)C(=O)N[C@@H](CCC(=O)O)C(=O)N[C@@H](CCCCN)C(=O)N[C@@H](Cc1c[nH]cn1)C(=O)N[C@@H](Cc1ccc(O)cc1)C(=O)N[C@@H](CSCC(=O)Nc1ccc(C=O)cc1)C(=O)N[C@@H](Cc1c[nH]c2ccccc12)C(=O)N[C@@H](C)C(N)=O
ring closure, product found ([1]; 33-membered ring): 1

CC(C)[C@H](NC(=O)[C@H](C)N)C(=O)N[C@@H](CO)C(=O)N[C@@H](CO)C(=O)NCC(=O)NCC(=O)N[C@@H](CO)C(=O)NCC(=O)N[C@@H](CSCC(=O)Nc1ccc2cc(C=O)ccc2c1)C(=O)N[C@@H](Cc1c[nH]c2ccccc12)C(=O)N[C@@H](C)C(N)=O
ring closure, product found ([1]; 38-membered ring): 1

CC(C)[C@H](NC(=O)[C@@H](N)CCCCN)C(=O)N[C@@H](CO)C(=O)N[C@@H](CO)C(=O)NCC(=O)NCC(=O)N[C@@H](CSCC(=O)Nc1ccc(C=O)cc1)C(=O)N[C@@H](Cc1c[nH]c2ccccc12)C(=O)N[C@@H](C)C(N)=O
ring closure, product found ([1]; 30-membered ring): 1

CC(C)[C@H](NC(=O)[C@@H](N)CCCCN)C(=O)N[C@@H](CO)C(=O)N[C@@H](CO)C(=O)NCC(=O)NCC(=O)N[C@@H](CSCC(=O)Nc1ccc2cc(C=O)ccc2c1)C(=O)N[C@@H](Cc1c[nH]c2ccccc12)C(=O)N[C@@H](C)C(N)=O
ring closure, product found ([1]; 32-membered ring): 1
